# Results: patent US20240358829A1, “Lymphocyte Population and Methods for Producing Same” (AVM Biotechnology, LLC, priority 2021, published 2024)
# Where “and” joins values, the source holds several entries; their conditions need not be identical. Equal entries are not always repeated.
# System: CD56+γδTCR+iTCR+ cells
# Assay: AVM0703 R/R NHL clinical trial, whole blood flow cytometry
# Format: in vivo, human
# Procedure: FIG. 15. 101-001 size (FSC) and complexity (SSC) scattergram of AVM_NKT cells. […] Blood was stained with panel antibodies based for 15 minutes in the dark at Room Temperature. RBC lysis was performed by addition of 1 mL of 1×BD FACS Lysing Solution (BD Bioscience), diluted with MilliQ water, for 10 minutes in the dark at Room Temperature. Samples were washed with 2 mL 1×DPBS CMF (Gibco) and resuspended in 300 μL of 1×DPBS CMF before 5 μL of 7AAD (Biolegend) was added to each sample for live/dead cell determination and incubated for 5 minutes in the dark at Room Temperature. 250 μL of sample were taken up for acquisition on Macsquant 16 Flow Cytometer (Miltenyi, Serial #40150). Live white blood cells were gated for CD56+ cells co-expressing gamma delta TCR and the invariant TCR and labelled red in the forward versus side scattergram. Red-labelled cells fall within the forward versus side scattergrams where large granular cells such as neutrophils and large granular lymphocytes are known to fall.
# For characterisation of the induced/mobilized population of NKT-like cells (AVM-NKT) in humans, whole blood from human subjects was drawn in K2 EDTA Vacutainer tube (367862, BD Biosciences, NJ) and shipped to AVM Biotechnology at room temperature. 100 μl of whole blood was stained with the following antibodies: CD45 AF700 (2D1), CD16 APC (3G8), INKT PECy7 (6B11), CD8 PE (SK1), CD14 FITC (M5E2), CD56 BV650 (5.1H11), γδTCR BV510 (B1), CD19 BV421 (HIB19), NKp44 APC (P44-8) (all from Biolegend, San Diego, CA) and CD3 APCVio770 (BW264/56), (Miltenyi Biotec, San Jose, CA), 7-AAD, (Biolegend, San Diego CA) was included to distinguish the live and dead cells.
# [1] = patient 101-001, 6 mg/kg, 1 hour post-infusion
# [2] = patient 101-001, 6 mg/kg, Day 14
# [3] = patient 103-002, 6 mg/kg, 1 hour post-infusion
# [4] = patient 103-002, 6 mg/kg, Day 3
# [5] = patient 103-002, 6 mg/kg, Day 14
# [6] = patient 103-005, 9 mg/kg, 1 hour post-infusion
# [7] = patient 103-005, 9 mg/kg, Day 3
# [8] = patient 103-005, 9 mg/kg, Day 14
# [9] = patient 103-006, 9 mg/kg, day 3
# [10] = patient 103-006, 9 mg/kg, day 14
# [11] = patient 108-001, 1st 9 mg/kg infusion, 1 hour
smiles,measurement,setting,value
"C[C@@H]1C[C@H]2[C@@H]3CCC4=CC(=O)C=C[C@]4(C)[C@@]3(F)[C@@H](O)C[C@]2(C)[C@@]1(O)C(=O)COP(=O)(O)O [AVM0703, dexamethasone sodium phosphate]",time to mobilization of bi-specific gamma delta TCR+ invariant TCR+ cell into the blood,"R/R NHL clinical trial patients, dosing between 6 mg/kg and 18 mg/kg",30 to 60 min
same,CD56+gdTCR+ inv TCR+ cells induced,"patient 101-001, 6 mg/kg",YES
same,CD3 (as % of CD56+ γδTCR+ iTCR+ cells),[1],39%
same,CD8med (as % of CD56+ γδTCR+ iTCR+ cells),[1],86%
same,CD19+ (as % of CD56+ γδTCR+ iTCR+ cells),[1],54%
same,CD45 (as % of CD56+ γδTCR+ iTCR+ cells),[1],99%
same,CD56+ γδTCR+ iTCR+ % of total WBCs,[1],0.24%
same,CD56+ γδTCR+ iTCR+ cells/uL,[1],11.4 cells/uL
same,TCRαβ (as % of CD56+ γδTCR+ iTCR+ cells),[1],100%
same,CD3 (as % of CD56+ γδTCR+ iTCR+ cells),[2],99%
same,CD8med (as % of CD56+ γδTCR+ iTCR+ cells),[2],94%
same,CD19+ (as % of CD56+ γδTCR+ iTCR+ cells),[2],22%
same,CD45 (as % of CD56+ γδTCR+ iTCR+ cells),[2],99.5%
same,CD56+ γδTCR+ iTCR+ % of total WBCs,[2],1.74%
same,CD56+ γδTCR+ iTCR+ cells/uL,[2],78.7 cells/uL and 79 cells/uL
same,TCRαβ (as % of CD56+ γδTCR+ iTCR+ cells),[2],99%
same,"CD56+γδTCR+ cells, % of all CD45+ cells","patient 101-001, one hour after 6 mg/kg infusion (pre-infusion 1.6%)",3.48%
same,CD56+γδTCR+ cells/uL blood,"patient 101-001, one hour after 6 mg/kg infusion (pre-infusion 76)",165 cells/uL blood
same,% of CD56+γδTCR+ cells co-expressing invTCR,"patient 103-002, 6 mg/kg",about 10%
same,CD56+gdTCR+ inv TCR+ cells induced,"patient 103-002, 6 mg/kg",YES
same,CD3 (as % of CD56+ γδTCR+ iTCR+ cells),[3],4.2%
same,CD8hi (as % of CD56+ γδTCR+ iTCR+ cells),[3],2.6%
same,CD8med (as % of CD56+ γδTCR+ iTCR+ cells),[3],2.9%
same,CD19+ (as % of CD56+ γδTCR+ iTCR+ cells),[3],0.78%
same,CD45 (as % of CD56+ γδTCR+ iTCR+ cells),[3],92%
same,CD56+ γδTCR+ iTCR+ % of total WBCs,[3],0.83%
same,CD56+ γδTCR+ iTCR+ cells/uL,[3],65.6 cells/uL
same,TCRαβ (as % of CD56+ γδTCR+ iTCR+ cells),[3],79%
same,"CD56+γδTCR+ cells, % of all CD45+ cells","patient 103-002, 6 mg/kg, 1 hour post-infusion (pre-infusion 9.3%)",6.54%
same,CD56+γδTCR+ cells/uL blood,"patient 103-002, 6 mg/kg, 1 hour post-infusion (pre-infusion 735)",517 cells/uL blood
same,CD3 (as % of CD56+ γδTCR+ iTCR+ cells),[4],67%
same,CD8hi (as % of CD56+ γδTCR+ iTCR+ cells),[4],2%
same,CD8med (as % of CD56+ γδTCR+ iTCR+ cells),[4],30%
same,CD19+ (as % of CD56+ γδTCR+ iTCR+ cells),[4],4% and 4.2%
same,CD45 (as % of CD56+ γδTCR+ iTCR+ cells),[4],17%
same,CD56+ γδTCR+ iTCR+ % of total WBCs,[4],1.99%
same,CD56+ γδTCR+ iTCR+ cells/uL,[4],366 cells/uL and 366.2 cells/uL
same,TCRαβ (as % of CD56+ γδTCR+ iTCR+ cells),[4],54%
same,CD3 (as % of CD56+ γδTCR+ iTCR+ cells),[5],31.5%
same,CD8hi (as % of CD56+ γδTCR+ iTCR+ cells),[5],2.4%
same,CD8med (as % of CD56+ γδTCR+ iTCR+ cells),[5],70%
same,CD19+ (as % of CD56+ γδTCR+ iTCR+ cells),[5],1.76%
same,CD45 (as % of CD56+ γδTCR+ iTCR+ cells),[5],98%
same,CD56+ γδTCR+ iTCR+ % of total WBCs,[5],0.42%
same,CD56+ γδTCR+ iTCR+ cells/uL,[5],27 cells/uL
same,TCRαβ (as % of CD56+ γδTCR+ iTCR+ cells),[5],78%
same,CD56+gdTCR+ inv TCR+ cells induced,"patient 103-004, 6 mg/kg",YES
same,CD56+gdTCR+ inv TCR+ cells induced,"patient 103-005, 9 mg/kg",YES
same,CD3 (as % of CD56+ γδTCR+ iTCR+ cells),[6],6%
same,CD8med (as % of CD56+ γδTCR+ iTCR+ cells),[6],17%
same,CD14+ (as % of CD56+ γδTCR+ iTCR+ cells),[6],76%
same,CD16 (as % of CD56+ γδTCR+ iTCR+ cells),[6],66%
same,CD19+ (as % of CD56+ γδTCR+ iTCR+ cells),[6],33.9%
same,CD45 (as % of CD56+ γδTCR+ iTCR+ cells),[6],99%
same,CD56+ γδTCR+ iTCR+ % of total WBCs,[6],0.87%
same,CD56+ γδTCR+ iTCR+ cells/uL,[6],21.8 cells/uL
same,CD3 (as % of CD56+ γδTCR+ iTCR+ cells),[7],10%
same,CD8med (as % of CD56+ γδTCR+ iTCR+ cells),[7],15%
same,CD14+ (as % of CD56+ γδTCR+ iTCR+ cells),[7],8%
same,CD16 (as % of CD56+ γδTCR+ iTCR+ cells),[7],84%
same,CD19+ (as % of CD56+ γδTCR+ iTCR+ cells),[7],28%
same,CD45 (as % of CD56+ γδTCR+ iTCR+ cells),[7],63%
same,CD56+ γδTCR+ iTCR+ % of total WBCs,[7],2.67%
same,CD56+ γδTCR+ iTCR+ cells/uL,[7],82.8 cells/uL
same,CD3 (as % of CD56+ γδTCR+ iTCR+ cells),[8],66%
same,CD8med (as % of CD56+ γδTCR+ iTCR+ cells),[8],16%
same,CD14+ (as % of CD56+ γδTCR+ iTCR+ cells),[8],81%
same,CD16 (as % of CD56+ γδTCR+ iTCR+ cells),[8],37%
same,CD19+ (as % of CD56+ γδTCR+ iTCR+ cells),[8],99%
same,CD45 (as % of CD56+ γδTCR+ iTCR+ cells),[8],84%
same,CD56+ γδTCR+ iTCR+ % of total WBCs,[8],0.66%
same,CD56+ γδTCR+ iTCR+ cells/uL,[8],22.4 cells/uL
same,"CD56+γδTCR+ cells, % of CD45+ cells","patient 103-005, one hour after 9 mg/kg (baseline 2.7%)",0.21%
same,% of CD56+γδTCR+ cells expressing CD16,[9],92%
same,% of CD56+γδTCR+ cells expressing NKp44,[9],19%
same,"CD56+γδTCR+ cells, % of all WBCs",[9],2.2%
same,ICAM3 MFI of CD56+γδTCR+ cells,[9],240
same,% of CD56+γδTCR+ cells expressing CD16,[10],92%
same,% of CD56+γδTCR+ cells expressing NKp44,[10],19%
same,"CD56+γδTCR+ cells, % of all WBCs",[10],2.2% and 0.11%
same,ICAM3 MFI of CD56+γδTCR+ cells,[10],240
same,"CD56+γδTCR+ cells, number or expression in the blood","patient 103-006, one hour after 9 mg/kg",had not changed
same,% of CD56+γδTCR+ cells NKp44+,"patient 103-006, one hour after 9 mg/kg (baseline 42%)",25%
same,ICAM3 MFI of CD56+γδTCR+ cells,"patient 103-006, one hour after 9 mg/kg (baseline 294)",no change
same,CD56+gdTCR+ inv TCR+ cells induced,"patient 108-001, 9 mg/kg",YES
same,CD3 (as % of CD56+ γδTCR+ iTCR+ cells),[11],4%
same,CD8hi (as % of CD56+ γδTCR+ iTCR+ cells),[11],1%
same,CD8med (as % of CD56+ γδTCR+ iTCR+ cells),[11],11%
same,CD14+ (as % of CD56+ γδTCR+ iTCR+ cells),[11],35%
same,CD16 (as % of CD56+ γδTCR+ iTCR+ cells),[11],90%
same,CD19+ (as % of CD56+ γδTCR+ iTCR+ cells),[11],11.3%
